The values that follow come from PMC10465233, “Lys-urea-Aad, Lys-urea-Cmc and Lys-urea-Cms as potential pharmacophores for the design of PSMA-targeted radioligands to reduce off-target uptake in kidneys and salivary glands” (Theranostics, 2023).

Several values for one entry are separate records, joined by “and”; a condition that tells them apart may be missing. Equal values may be shown once.

One data set addresses T1, PSMA (Homo sapiens, UniProt Q04609).
T1 construct: host or cells: LNCaP prostate cancer cells
In words: In vitro competition binding assay, LNCaP cells, [^18F]DCFPyL as radioligand. As to the method:
The LNCaP cells obtained from ATCC (via Cedarlane, Burlington, Canada) were cultured in RPMI 1640 medium supplemented with 10% FBS, penicillin (100 U/mL) and streptomycin (100 μg/mL) at 37 °C in a Panasonic Healthcare (Tokyo, Japan) MCO-19AIC humidified incubator containing 5% CO2. The cells were confirmed pathogen free by the IMPACT Rodent Pathogen Test (IDEXX BioAnalytics). Cells grown to 80-90% confluence were then washed with sterile PBS and collected after trypsinization. The cell concentration was counted in triplicate using a hemocytometer and a manual laboratory counter.
In vitro competition binding assays were conducted as previously reported using LNCaP prostate cancer cells and [^18F]DCFPyL as the radioligand [10]-[12],[14]. Briefly, LNCaP cells (400,000/well) were plated onto a 24-well poly-D-lysine coated plate for 48 h. Growth media was removed and replaced with HEPES buffered saline (50 mM HEPES, pH 7.5, 0.9% sodium chloride) and the cells were incubated for 1 h at 37 °C. [^18F]DCFPyL (0.1 nM) was added to each well (in triplicate) containing various concentrations (0.5 mM - 0.05 nM) of tested ligands. Non-specific binding was determined in the presence of 10 µM non-radiolabeled DCFPyL. The assay mixtures were further incubated for 1 h at 37 °C with gentle agitation. Then, the buffer and hot ligand were removed, and cells were washed twice with cold HEPES buffered saline. To harvest the cells, 400 µL of 0.25% trypsin solution was added to each well. Radioactivity was measured on an automatic gamma counter. Nonlinear regression analyses and Ki calculations were performed using the GraphPad Prism 7 software.

For data set [1], the system named is LNCaP tumor-bearing mice. In words: Ex vivo biodistribution in LNCaP tumor-bearing mice. Set-up: species or system mouse. To be noted: 1 h post-injection. The gist of the method:
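Male NSG or NRG mice bearing subcutaneous LNCaP tumours (5-8 mm) were injected with 2-4 MBq radioligand, with 0.5 mg nonradioactive DCFPyL co-injected for blocking. At set time points, blood and organs were collected, weighed and gamma-counted.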

Data set [2] has as its system LNCaP tumor-bearing mice. In words: PET/CT imaging in LNCaP tumor-bearing mice. Type of data set: in vivo, mouse. As to conditions: 1 h post-injection. The method, then: Imaging, biodistribution and radioligand therapy experiments were performed following previously published procedures using male NOD-scid IL2Rg^null (NSG) or NOD.Cg-Rag1^tm1MomIl2rg^tm1Wjl/SzJ (NRG) mice [10]-[12],[14]-[15]. The experiments were conducted according to the guidelines established by the Canadian Council on Animal Care and approved by Animal Ethics Committee of the University of British Columbia. The mice were briefly sedated by inhalation of 2% isoflurane in oxygen, and implanted subcutaneously with 1×10^7 LNCaP cells behind the left shoulder. The mice were imaged or used in biodistribution studies when the tumor grew to 5-8 mm in diameter over a period of 4-5 weeks.
PET/CT imaging experiments were conducted using a Siemens (Knoxville, TN, USA) Inveon micro PET/CT scanner. Each tumor-bearing mouse was injected with ~6-8 MBq of ^68Ga-labeled tracer through a lateral caudal tail vein. After 50 min post-injection, a 10-min CT scan was conducted first for localization and attenuation correction after segmentation for reconstructing the PET images, followed by a 10-min static PET imaging acquisition.

Where [3] appears, read: blocked, co-injected with DCFPyL (0.5 mg).

T1 sequence (Q04609 whole entry): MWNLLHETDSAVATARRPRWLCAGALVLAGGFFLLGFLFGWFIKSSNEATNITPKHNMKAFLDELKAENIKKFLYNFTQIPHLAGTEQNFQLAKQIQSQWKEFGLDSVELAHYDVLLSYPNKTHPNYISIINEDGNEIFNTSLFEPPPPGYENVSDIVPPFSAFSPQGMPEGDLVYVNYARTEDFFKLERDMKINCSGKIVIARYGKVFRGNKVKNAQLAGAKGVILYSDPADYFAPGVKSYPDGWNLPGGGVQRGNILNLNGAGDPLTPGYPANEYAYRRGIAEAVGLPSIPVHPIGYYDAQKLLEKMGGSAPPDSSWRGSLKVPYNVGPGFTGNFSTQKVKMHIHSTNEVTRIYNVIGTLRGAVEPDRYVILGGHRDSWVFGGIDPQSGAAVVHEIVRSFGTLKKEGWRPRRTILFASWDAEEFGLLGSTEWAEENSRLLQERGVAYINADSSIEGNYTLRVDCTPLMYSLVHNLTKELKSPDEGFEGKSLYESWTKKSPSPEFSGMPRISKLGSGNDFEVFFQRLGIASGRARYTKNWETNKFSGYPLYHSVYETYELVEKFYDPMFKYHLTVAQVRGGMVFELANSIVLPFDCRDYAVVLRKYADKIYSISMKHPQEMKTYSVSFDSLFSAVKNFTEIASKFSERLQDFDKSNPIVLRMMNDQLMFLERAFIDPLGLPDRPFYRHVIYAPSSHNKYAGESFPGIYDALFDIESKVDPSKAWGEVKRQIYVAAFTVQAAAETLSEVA

One may read the Ki as the dissociation constant of the complex between target and ligand, obtained from inhibition or displacement. Lower therefore signals a stronger hold on the target. With `O=C([O-])CN1CCN(CC(=O)[O-])CCN(CC(=O)NCC2CCC(C(=O)NC(Cc3c4ccccc4cc4ccccc34)C(=O)NCCCCC(NC(=O)NC(CSCC(=O)O)C(=O)O)C(=O)O)CC2)CCN(CC(=O)[O-])CC1.[Ga+3]` (stereo not shown) [Ga-HTK03177], the affinity on PSMA, expressed as Ki, was 5 ± 2.4 nM.

`O=C([O-])CN1CCN(CC(=O)[O-])CCN(CC(=O)NCC2CCC(C(=O)NC(Cc3c4ccccc4cc4ccccc34)C(=O)NCCCCC(NC(=O)NC(COCC(=O)O)C(=O)O)C(=O)O)CC2)CCN(CC(=O)[O-])CC1.[Ga+3]` (stereo not shown) [Ga-HTK03187] registered a Ki on PSMA of 10.6 ± 2 nM.

For the molecule `COc1ccc(CCCC(=O)NCC(=O)N[C@@H](CCCCNC(=O)CN2CCN(CC(=O)[O-])CCN(CC(=O)[O-])CCN(CC(=O)[O-])CC2)C(=O)NC[C@H]2CC[C@H](C(=O)N[C@@H](Cc3c4ccccc4cc4ccccc34)C(=O)NCCCC[C@H](NC(=O)N[C@@H](CCCC(=O)O)C(=O)O)C(=O)O)CC2)cc1.[Lu+3]` [Lu-HTK03170], the affinity at PSMA corresponds to a Ki of 1.6 ± 0.4 nM.

Regarding `COc1ccc(CCCC(=O)NCC(=O)N[C@@H](CCCCNC(=O)CN2CCN(CC(=O)[O-])CCN(CC(=O)[O-])CCN(CC(=O)[O-])CC2)C(=O)NC[C@H]2CC[C@H](C(=O)N[C@@H](Cc3c4ccccc4cc4ccccc34)C(=O)NCCCC[C@H](NC(=O)N[C@@H](COCC(=O)O)C(=O)O)C(=O)O)CC2)cc1.[Lu+3]` [Lu-HTK04028], affinity at PSMA was put at a Ki of 13.9 ± 3.2 nM.

With `COc1ccc(CCCC(=O)NCC(=O)N[C@@H](CCCCNC(=O)CN2CCN(CC(=O)[O-])CCN(CC(=O)[O-])CCN(CC(=O)[O-])CC2)C(=O)NC[C@H]2CC[C@H](C(=O)N[C@@H](Cc3c4ccccc4cc4ccccc34)C(=O)NCCCC[C@H](NC(=O)N[C@@H](CSCC(=O)O)C(=O)O)C(=O)O)CC2)cc1.[Lu+3]` [Lu-HTK04048], the affinity on PSMA, expressed as Ki, was 1.4 ± 1 nM.

Regarding `O=C([O-])CN1CCN(CC(=O)[O-])CCN(CC(=O)NCC2CCC(C(=O)NC(Cc3c4ccccc4cc4ccccc34)C(=O)NCCCCC(NC(=O)NC(CSCC(=O)O)C(=O)O)C(=O)O)CC2)CCN(CC(=O)[O-])CC1.[68Ga+3]` (stereo not shown) [[^68Ga]Ga-HTK03177], in the data set on LNCaP tumor-bearing mice [1], the Adrenal glands uptake came to 0.46 ± 0.17 %ID/g, the Blood uptake is on record as 0.70 ± 0.06 %ID/g, the “Blood:Salivary gland uptake ratio” value came out at 3.14 ± 0.19 and the Bone uptake was 0.10 ± 0.03 %ID/g. In the data set with LNCaP tumor-bearing mice [1], the Brain uptake is given as 0.02 ± 0.00 %ID/g, the Fat uptake stood at 0.09 ± 0.04 %ID/g, the Heart uptake is given as 0.21 ± 0.01 %ID/g and the Intestines uptake was 0.21 ± 0.02 %ID/g. In addition, in the data set with LNCaP tumor-bearing mice [1], the Kidneys uptake is 7.76±1.00 %ID/g and < 8.0 %ID/g; the Lacrimal glands uptake is listed as 0.12 ± 0.06 %ID/g; the Liver uptake is reported as 0.33 ± 0.20 %ID/g; the Lungs uptake was 0.61 ± 0.08 %ID/g. Besides, in the data set with LNCaP tumor-bearing mice [1], the Muscle uptake is listed as 0.10 ± 0.01 %ID/g; the Pancreas uptake is recorded as 0.14 ± 0.01 %ID/g; the Salivary glands uptake was 0.22±0.02 %ID/g and < 0.25 %ID/g; the Spleen uptake is recorded as 0.42 ± 0.15 %ID/g. Besides, in the data set with LNCaP tumor-bearing mice [1], the Stomach uptake came to 0.15 ± 0.09 %ID/g; the Testes uptake was 0.25 ± 0.07 %ID/g; the Thyroid uptake is reported as 0.23 ± 0.01 %ID/g; the Tumor uptake is 24.7±6.85 %ID/g and 21-25 %ID/g. For the same molecule, in the data set on LNCaP tumor-bearing mice [1], the “Tumor:Blood uptake ratio” value is 36.1±12.5, the “Tumor:Kidney uptake ratio” value was 3.25±1.16, the “Tumor:Muscle uptake ratio” value was 265±103 and the “Tumor:Salivary gland uptake ratio” value is listed as 112±33.1. Further, in the data set on LNCaP tumor-bearing mice [1] (setting [3]), the Adrenal glands uptake worked out at 0.61 ± 0.38 %ID/g, the Blood uptake is 0.85 ± 0.15 %ID/g, the “Blood:Salivary gland uptake ratio” value is reported as 6.07 ± 2.53 and the Bone uptake was found to be 0.24 ± 0.17 %ID/g. Besides, in the data set on LNCaP tumor-bearing mice [1] (setting [3]), the Brain uptake is listed as 0.02 ± 0.00 %ID/g, the Fat uptake came to 0.20 ± 0.16 %ID/g, the Heart uptake amounted to 0.23 ± 0.04 %ID/g and the Intestines uptake is given as 0.69 ± 0.76 %ID/g. For the same molecule, in the data set on LNCaP tumor-bearing mice [1] (setting [3]), the Kidneys uptake came to 1.73 ± 0.36 %ID/g, the Lacrimal glands uptake is 0.15 ± 0.10 %ID/g, the Liver uptake is on record as 0.37 ± 0.22 %ID/g and the Lungs uptake turned out to be 0.54 ± 0.06 %ID/g. Also, in the data set on LNCaP tumor-bearing mice [1] (setting [3]), the Muscle uptake stood at 0.13 ± 0.05 %ID/g, the Pancreas uptake stood at 0.54 ± 0.54 %ID/g, the Salivary glands uptake is given as 0.15 ± 0.04 %ID/g and the Spleen uptake is given as 0.25 ± 0.18 %ID/g. In the data set with LNCaP tumor-bearing mice [1] (setting [3]), the Stomach uptake is listed as 0.12 ± 0.05 %ID/g, the Testes uptake worked out at 0.36 ± 0.14 %ID/g, the Thyroid uptake came to 0.21 ± 0.06 %ID/g and the Tumor uptake came to 0.74 ± 0.12 %ID/g. Besides, in the data set on LNCaP tumor-bearing mice [1] (setting [3]), the “Tumor:Blood uptake ratio” value worked out at 0.89 ± 0.19, the “Tumor:Kidney uptake ratio” value is 0.43 ± 0.05, the “Tumor:Muscle uptake ratio” value was determined as 5.50 ± 2.68 and the “Tumor:Salivary gland uptake ratio” value stood at 5.05 ± 0.77. Also, the “Reduction of average kidney uptake by co-injection of DCFPyL” value in the data set on LNCaP tumor-bearing mice [1] (DCFPyL 0.5 mg) turned out to be 78%. Also, the “Kidney uptake in PET images” value in the data set on LNCaP tumor-bearing mice [2] is “moderate”.
